Drawing on PubChem BioAssay AID602239 (National Center for Advancing Translational Sciences (NCATS), 2012), this text covers percent remaining (higher = more stable) for 3 molecules.

The data set concerns mouse liver microsomes with NADPH, LC-MS/MS. Description: qHTS for Activators of Human alpha-Glucosidase as a Potential Chaperone Treatment of Pompe Disease: Metabolic Stability in presence of NADPH. The note with it: at 5 µM; hits give high values (more stable). From the text: Alpha-glucosidase is responsible for hydrolysis of terminal, non-reducing 1,4-linked alpha-D-glucose residues with release of alpha-D-glucose. It is a lysosomal hydrolase that is required for the degradation of a small percentage (1-3%) of cellular glycogen in human. Deficiency of this enzyme results in glycogen-storage disease type II (GSDII), also referred to as Pompe disease, an autosomal recessive disorder. Structurally normal glycogen is accumulated in lysosomes and cytoplasm in affected patients, primarily in muscle tissues. Excessive glycogen storage within lysosomes may interrupt normal functioning of other organelles and leads to cellular injury. In turn, this leads to enlargement and dysfunction of the entire organ involved (eg, cardiomyopathy and muscle weakness). It has reported that the improper folding and trafficking of alpha-glucosidase resulting from the genetic mutations may account for a significant number of Pompe patients. […] We optimized this alpha-glucosidase assay in 1536-well plate format for identifying the novel small molecule inhibitors with the structures other than the sugar analogs in order to develop the new pharmacological chaperones. Mouse liver microsomes are created through broken up endoplasmic reticulum from mouse liver. These liver microsomes contain many drug metabolizing enzymes, such as Cytochome P-450s and flavin-containing monooxygenases. […] NIH Chemical Genomics Center [NCGC] NIH Molecular Libraries Probe Production Centers Network [MLPCN] MLPCN Grant: MH084841 Assay Submitter (PI): Wei Zheng
5uM of compound is incubated with mouse liver microsome; the reference compounds are verapamil and warfarin. Compounds are incubated and samples are analyzed with LC-MS/MS.
For orientation: qHTS replaces the single test concentration by a dilution series.

With `CCCN1CNc2c(c(=O)[nH]c(=S)n2Cc2ccc(OC)c(OC)c2)C1`, the percent remaining (higher = more stable) is 63%.
The same measure for `CCCN1CNc2c(c(=O)[nH]c(=S)n2CCc2cccc(Cl)c2Cl)C1`: 2%; for `CCCN1CNc2c(c(=O)[nH]c(=S)n2CCc2ccc(OC)c(OC)c2)C1`: 4%.
